Experimental data reported in US12612424B2, “HPK1 inhibitors and uses thereof” (Regor Pharmaceuticals, Inc., priority 2019, dated 2026).

Target: HPK1 (Homo sapiens, UniProt Q92918)
Test: HPK1 biochemical assay (ADP-GLO Kinase Assay)
Details: B*: testing performed in a first testing facility; read-out: HPK1 IC50 (nM) Relative, B*
Procedure, shortened: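 HPK1 (0.6 ng/μL final) activity was followed with MBP substrate and 10 μM ATP in Tris pH 7.5/MgCl2/BSA/DTT buffer, measured by ADP-Glo luminescence. Compounds were tested as 3-fold dilutions from 10 μM. IC50 came from a three-parameter logistic fit, with inhibition normalised to high/low controls.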

Sequence of HPK1 (Q92918 whole entry): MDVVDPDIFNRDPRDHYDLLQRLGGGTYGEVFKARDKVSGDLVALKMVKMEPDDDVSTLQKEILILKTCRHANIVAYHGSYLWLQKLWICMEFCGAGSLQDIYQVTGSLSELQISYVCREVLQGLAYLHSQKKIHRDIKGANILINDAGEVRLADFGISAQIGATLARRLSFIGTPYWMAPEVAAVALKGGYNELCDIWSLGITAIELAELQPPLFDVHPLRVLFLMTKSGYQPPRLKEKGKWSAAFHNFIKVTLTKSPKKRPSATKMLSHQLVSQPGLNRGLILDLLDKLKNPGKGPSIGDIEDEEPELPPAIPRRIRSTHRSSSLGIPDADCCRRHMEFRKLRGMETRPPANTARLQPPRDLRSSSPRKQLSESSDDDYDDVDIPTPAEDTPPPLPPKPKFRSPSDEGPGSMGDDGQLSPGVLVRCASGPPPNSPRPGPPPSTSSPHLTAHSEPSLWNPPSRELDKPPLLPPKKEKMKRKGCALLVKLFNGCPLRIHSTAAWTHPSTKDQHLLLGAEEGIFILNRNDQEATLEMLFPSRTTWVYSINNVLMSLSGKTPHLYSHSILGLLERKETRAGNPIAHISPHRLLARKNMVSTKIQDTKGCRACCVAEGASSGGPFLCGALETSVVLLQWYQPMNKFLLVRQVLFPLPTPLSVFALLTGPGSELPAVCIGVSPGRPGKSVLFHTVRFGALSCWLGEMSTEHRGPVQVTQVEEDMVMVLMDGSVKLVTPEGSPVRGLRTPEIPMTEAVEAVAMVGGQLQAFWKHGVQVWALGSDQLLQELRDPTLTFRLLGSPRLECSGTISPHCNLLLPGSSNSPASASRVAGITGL

SMILES | IC50
COc1cc2c(cc1Nc1ncc(Cl)c(N3CC(C(=O)O)c4ccccc43)n1)CN(C)CC2 (single isomer, unassigned) [Example 96] | ≤ 100 nM
COc1cc2c(cc1Nc1ncc(Cl)c(N3C[C@](C)(C(=O)O)c4ccccc43)n1)CN(C)CC2 (single isomer, unassigned) [Example 118] | ≤ 100 nM
COc1cc2c(cc1Nc1ncc(Cl)c(N3C[C@@](C)(C(=O)O)c4ccccc43)n1)CN(C)CC2 (single isomer, unassigned) [Example 119] | ≤ 100 nM
COc1cc2c(cc1Nc1ncc(Cl)c(N3CC(C)(CC(=O)O)c4ccccc43)n1)CN(C)CC2 (single isomer, unassigned) [Example 147] | ≤ 100 nM
COc1cc2c(cc1Nc1ncc(Cl)c(N3CC(C)(CC(=O)O)c4ccccc43)n1)CN(C)CC2 (single isomer, unassigned) [Example 148] | ≤ 100 nM
COc1cc2c(cc1Nc1ncc(Cl)c(N3CC(C)(CC(=O)O)c4ccc(F)cc43)n1)CN(C)CC2 (single isomer, unassigned) [Example 152] | ≤ 100 nM
COc1cc2c(cc1Nc1ncc(Cl)c(N3CC(C)(CC(=O)O)c4ccc(F)cc43)n1)CN(C)CC2 (single isomer, unassigned) [Example 153] | ≤ 100 nM
COc1cc2c(cc1Nc1ncc(Cl)c(-n3ccc4ccccc43)n1)CN(C)CC2 [Example 2, N-(5-chloro-4-(1H-indol-1-yl)pyrimidin-2-yl)-6-methoxy-2-methyl-1,2,3,4-tetrahydroisoquinolin-7-amine] | ≤ 100 nM
COc1cc2c(cc1Nc1ncc(Cl)c(N3CCc4ccccc43)n1)CN(C)CC2 [Example 4, N-(5-Chloro-4-(indolin-1-yl)pyrimidin-2-yl)-6-methoxy-2-methyl-1,2,3,4-tetrahydroisoquinolin-7-amine] | ≤ 100 nM
COc1cc2c(cc1Nc1ncc(Cl)c(-n3cc(C(=O)N(C)C)c4ccccc43)n1)CN(C)CC2 [Example 8] | ≤ 100 nM
COc1cc2c(cc1Nc1ncc(Cl)c(-n3cnc4ccccc43)n1)CN(C)CC2 [Example 9, N-(4-(1H-benzo[d]imidazol-1-yl)-5-chloropyrimidin-2-yl)-6-methoxy-2-methyl-1,2,3,4-tetrahydroisoquinolin-7-amine] | ≤ 100 nM
COc1cc2c(cc1Nc1ncc(C(F)(F)F)c(-n3ccc4ccccc43)n1)CN(C)CC2 [Example 10, N-(4-(1H-indol-1-yl)-5-(trifluoromethyl)pyrimidin-2-yl)-6-methoxy-2-methyl-1,2,3,4-tetrahydroisoquinolin-7-amine] | ≤ 100 nM
COc1cc2c(cc1Nc1ncc(Cl)c(N3CCc4cc(Cl)ccc43)n1)CN(C)CC2 [Example 13, N-(5-chloro-4-(5-chloroindolin-1-yl)pyrimidin-2-yl)-6-methoxy-2-methyl-1,2,3,4-tetrahydroisoquinolin-7-amine] | ≤ 100 nM
CN1CCc2ccc(Nc3ncc(Cl)c(N4CCc5ccccc54)n3)cc2C1 [Example 14, N-(5-Chloro-4-(indolin-1-yl)pyrimidin-2-yl)-2-methyl-1,2,3,4-tetrahydroisoquinolin-7-amine] | ≤ 100 nM
CN1CCc2cc(Cl)c(Nc3ncc(Cl)c(N4CCc5ccccc54)n3)cc2C1 [Example 15, 6-Chloro-N-(5-chloro-4-(indolin-1-yl)pyrimidin-2-yl)-2-methyl-1,2,3,4-tetrahydroisoquinolin-7-amine] | ≤ 100 nM
COc1cc2c(cc1Nc1ncc(Cl)c(N3CCc4ncccc43)n1)CN(C)CC2 [Example 16, N-(5-chloro-4-(2,3-dihydro-1H-pyrrolo[3,2-b]pyridin-1-yl)pyrimidin-2-yl)-6-methoxy-2-methyl-1,2,3,4-tetrahydroisoquinolin-7-amine] | ≤ 100 nM
COc1cc2c(cc1Nc1ncc(Cl)c(N3CCc4ccc(Cl)cc43)n1)CN(C)CC2 [Example 18, N-(5-chloro-4-(6-chloroindolin-1-yl)pyrimidin-2-yl)-6-methoxy-2-methyl-1,2,3,4-tetrahydroisoquinolin-7-amine] | ≤ 100 nM
COc1cc2c(cc1Nc1ncc(Cl)c(N3CC(S(C)(=O)=O)c4ccccc43)n1)CN(C)CC2 (stereo not drawn) [Example 81, N-(5-chloro-4-(3-(methylsulfonyl)indolin-1-yl)pyrimidin-2-yl)-6-methoxy-2-methyl-1,2,3,4-tetrahydroisoquinolin-7-amine] | ≤ 100 nM
COc1cc2c(cc1Nc1ncc(Cl)c(-n3cc(S(N)(=O)=O)c4ccccc43)n1)CN(C)CC2 [Example 83, 1-(5-Chloro-2-((6-methoxy-2-methyl-1,2,3,4-tetrahydroisoquinolin-7-yl)amino)pyrimidin-4-yl)-1H-indole-3-sulfonamide] | ≤ 100 nM
COc1cc2c(cc1Nc1ncc(Cl)c(N3CC4(CC4)c4ccccc43)n1)CN(C)CC2 [Example 84, N-(5-chloro-4-(spiro[cyclopropane-1,3′-indolin]-1′-yl)pyrimidin-2-yl)-6-methoxy-2-methyl-1,2,3,4-tetrahydroisoquinolin-7-amine] | ≤ 100 nM

SMILES | IC50
COc1cc2c(cc1Nc1ncc(Cl)c(N3CCc4cc(P(C)(C)=O)ccc43)n1)CN(C)CC2 [Example 86] | ≤ 100 nM
COc1cc2c(cc1Nc1ncc(Cl)c(N3CC(CO)c4ccccc43)n1)CN(C)CC2 (stereo not drawn) [Example 87] | ≤ 100 nM
COc1cc2c(cc1Nc1ncc(Cl)c(N3CC(P(C)(C)=O)c4ccccc43)n1)CN(C)CC2 (stereo not drawn) [Example 88] | ≤ 100 nM
COc1cc2c(cc1Nc1ncc(Cl)c(N3CCc4cc(C(F)F)ccc43)n1)CN(C)CC2 [Example 90, N-(5-chloro-4-(5-(difluoromethyl)indolin-1-yl)pyrimidin-2-yl)-6-methoxy-2-methyl-1,2,3,4-tetrahydroisoquinolin-7-amine] | ≤ 100 nM
COc1cc2c(cc1Nc1ncc(Cl)c(N3CCc4ccc(C(F)F)cc43)n1)CN(C)CC2 [Example 91, N-(5-chloro-4-(6-(difluoromethyl)indolin-1-yl)pyrimidin-2-yl)-6-methoxy-2-methyl-1,2,3,4-tetrahydroisoquinolin-7-amine] | ≤ 100 nM
COc1cc2c(cc1Nc1ncc(Cl)c(N3CCc4c(C(F)F)cccc43)n1)CN(C)CC2 [Example 92, N-(5-chloro-4-(4-(difluoromethyl)indolin-1-yl)pyrimidin-2-yl)-6-methoxy-2-methyl-1,2,3,4-tetrahydroisoquinolin-7-amine] | ≤ 100 nM
COc1cc2c(cc1Nc1ncc(Cl)c(-n3cc(C4(O)COC4)c4ccccc43)n1)CN(C)CC2 [Example 93] | 100 to 500 nM
CNC(=O)C1CN(c2nc(Nc3cc4c(cc3OC)CCN(C)C4)ncc2Cl)c2ccccc21 (stereo not drawn) [Example 97, 1-(5-Chloro-2-((6-methoxy-2-methyl-1,2,3,4-tetrahydroisoquinolin-7-yl)amino)pyrimidin-4-yl)-N-methylindoline-3-carboxamide] | ≤ 100 nM
COc1cc2c(cc1Nc1ncc(Cl)c(N3CC(C(=O)NS(C)(=O)=O)c4ccccc43)n1)CN(C)CC2 (stereo not drawn) [Example 98] | ≤ 100 nM
COc1cc2c(cc1Nc1ncc(Cl)c(N3CC(C#N)c4ccccc43)n1)CN(C)CC2 (stereo not drawn) [Example 99, 1-(5-Chloro-2-((6-methoxy-2-methyl-1,2,3,4-tetrahydroisoquinolin-7-yl)amino)pyrimidin-4-yl)indoline-3-carbonitrile] | ≤ 100 nM
COc1cc2c(cc1Nc1ncc(Cl)c(N3CC(c4nn[nH]n4)c4ccccc43)n1)CN(C)CC2 (stereo not drawn) [Example 100, N-(4-(3-(2H-tetrazol-5-yl)indolin-1-yl)-5-chloropyrimidin-2-yl)-6-methoxy-2-methyl-1,2,3,4-tetrahydroisoquinolin-7-amine] | ≤ 100 nM
COc1cc2c(cc1Nc1ncc(Cl)c(N3CC(C(=O)NO)c4ccccc43)n1)CN(C)CC2 (stereo not drawn) [Example 101, 1-(5-Chloro-2-((6-methoxy-2-methyl-1,2,3,4-tetrahydroisoquinolin-7-yl)amino)pyrimidin-4-yl)-N-hydroxyindoline-3-carboxamide] | ≤ 100 nM
COc1cc2c(cc1Nc1ncc(Cl)c(N3CC(C(=O)N(C)O)c4ccccc43)n1)CN(C)CC2 (stereo not drawn) [Example 102] | ≤ 100 nM
CONC(=O)C1CN(c2nc(Nc3cc4c(cc3OC)CCN(C)C4)ncc2Cl)c2ccccc21 (stereo not drawn) [Example 103, 1-(5-Chloro-2-((6-methoxy-2-methyl-1,2,3,4-tetrahydroisoquinolin-7-yl)amino)pyrimidin-4-yl)-N-methoxyindoline-3-carboxamide] | ≤ 100 nM
COc1cc2c(cc1Nc1ncc(Cl)c(N3CC(C(=O)O)c4cc(F)ccc43)n1)CN(C)CC2 (stereo not drawn) [Example 104] | ≤ 100 nM
COc1cc2c(cc1Nc1ncc(Cl)c(N3CC(C(=O)O)c4ccc(F)cc43)n1)CN(C)CC2 (stereo not drawn) [Example 105] | ≤ 100 nM
COc1ccc2c(c1)N(c1nc(Nc3cc4c(cc3OC)CCN(C)C4)ncc1Cl)CC2C(=O)O (stereo not drawn) [Example 107, 1-(5-Chloro-2-((6-methoxy-2-methyl-1,2,3,4-tetrahydroisoquinolin-7-yl)amino)pyrimidin-4-yl)-6-methoxyindoline-3-carboxylic acid] | ≤ 100 nM
COc1cc2c(cc1Nc1ncc(Cl)c(N3CC(C(=O)O)c4c(OC)cccc43)n1)CN(C)CC2 (stereo not drawn) [Example 108, 1-(5-Chloro-2-((6-methoxy-2-methyl-1,2,3,4-tetrahydroisoquinolin-7-yl)amino)pyrimidin-4-yl)-4-methoxyindoline-3-carboxylic acid] | ≤ 100 nM
COc1cc2c(cc1Nc1ncc(F)c(N3CC(C(=O)O)c4ccccc43)n1)CN(C)CC2 (stereo not drawn) [Example 109, 1-(5-Fluoro-2-((6-methoxy-2-methyl-1,2,3,4-tetrahydroisoquinolin-7-yl)amino)pyrimidin-4-yl)indoline-3-carboxylic acid] | ≤ 100 nM
COc1cc2c(cc1Nc1ncc(C#N)c(N3CC(C(=O)O)c4ccccc43)n1)CN(C)CC2 (stereo not drawn) [Example 110, 1-(5-Cyano-2-((6-methoxy-2-methyl-1,2,3,4-tetrahydroisoquinolin-7-yl)amino)pyrimidin-4-yl)indoline-3-carboxylic acid] | ≤ 100 nM

Same assay, conditions: N*: testing performed in a second testing facility; read-out: HPK1 IC50 (nM) Relative, N*

SMILES | IC50
COc1cc2c(cc1Nc1ncc(Cl)c(-n3ccc4ccccc43)n1)CN(C)CC2 [Example 2, N-(5-chloro-4-(1H-indol-1-yl)pyrimidin-2-yl)-6-methoxy-2-methyl-1,2,3,4-tetrahydroisoquinolin-7-amine] | ≤ 100 nM
COc1cc2c(cc1Nc1ncc(Cl)c(N3CCc4ccccc43)n1)CN(C)CC2 [Example 4, N-(5-Chloro-4-(indolin-1-yl)pyrimidin-2-yl)-6-methoxy-2-methyl-1,2,3,4-tetrahydroisoquinolin-7-amine] | ≤ 100 nM
COc1cc2c(cc1Nc1ncc(Cl)c(-n3cc(C(=O)N(C)C)c4ccccc43)n1)CN(C)CC2 [Example 8] | ≤ 100 nM
COc1cc2c(cc1Nc1ncc(Cl)c(-n3cnc4ccccc43)n1)CN(C)CC2 [Example 9, N-(4-(1H-benzo[d]imidazol-1-yl)-5-chloropyrimidin-2-yl)-6-methoxy-2-methyl-1,2,3,4-tetrahydroisoquinolin-7-amine] | ≤ 100 nM
CN1CCc2ccc(Nc3ncc(Cl)c(N4CCc5ccccc54)n3)cc2C1 [Example 14, N-(5-Chloro-4-(indolin-1-yl)pyrimidin-2-yl)-2-methyl-1,2,3,4-tetrahydroisoquinolin-7-amine] | ≤ 100 nM
